Measured values from patent US9770026B2, “Substituted pyrimidine compound and uses thereof” (Shenyang Sinochem Agrochemicals R&D Co., Ltd., priority 2012, dated 2017).

How the values were obtained:
carmine spider mite = experiment: bioactivity test against carmine spider mite, airbrush spray; type: in vivo; details: for pest or weed control at 10 µg/mL / pest or weed control at 100 µg/mL / pest or weed control at 600 µg/mL: Tetranychus cinnabarinus, 72 h, read-out: Insecticidal activity against carmine spider mite (% ); for control against carmine spider mite: mortality after 72 hrs
Outline: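 Broadbean seedlings infested with adult mites were sprayed with compound (acetone/methanol stock diluted in 0.1% Tween 80 water) by airbrush at 0.7 kg/cm^2, 0.5 ml. Three replicates were run. Mortality was scored after 72 hrs.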

rice blast = experiment: microbe, parasite or virus in culture; type: cell-based; details: Pyricularia oryzae; for inhibition at 25 ppm: read-out: inhibition rate against rice blast, 25 ppm, in vitro
[1] = tested on: Green peach aphids (Myzus Persicae Sulzer); experiment: bioactivity test against green peach aphid, airbrush foliar spray; type: in vivo; details: for control (test results against green peach aphid): death rate after 48 hrs
Outline: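 Aphids (15-30 per cabbage leaf disc) on moist filter paper were airbrush-sprayed at 10 psi, 0.5 mL, with compound from acetone:methanol (1:1) diluted in water with 0.1% tween 80. Held at 25±1 C, 60±5% RH; survivors counted after 48 hrs to give death rates.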

Diamond back moth = experiment: insecticidal activity against diamond back moth, airbrush spray; type: in vivo; details: for pest or weed control at 10 µg/mL / pest or weed control at 100 µg/mL / pest or weed control at 600 µg/mL: 72 h; for pest or weed control at 10 µg/mL: 10 mg/L; for pest or weed control at 100 µg/mL: 100 mg/L; for pest or weed control at 600 µg/mL: 600 mg/L; for control (test results against diamond back moth): mortality after 72 hrs
Outline: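 Airbrush leaf-disc spray test: both faces of 2 cm cabbage discs received 0.5 ml of test solution at 0.7 kg/cm^2. Solutions were made in acetone:methanol (1:1) and brought to concentration with 0.1% Tween 80 in water. Ten second-instar larvae per disc, triplicates, were held at 25° C and 60˜70% R.H., with mortality recorded at 72 hrs.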

armyworm = experiment: bioactivity test against armyworm, airbrush spray; type: in vivo; details: for pest or weed control at 600 µg/mL: 600 mg/L; for control (test results against armyworm): mortality after 72 h
corn rust = experiment: protectant activity in vivo against corn rust; details: for pest or weed control at 400 µg/mL / pest or weed control at 0.4 µg/mL / pest or weed control at 1.6 µg/mL / pest or weed control at 6.25 µg/mL / pest or weed control at 25 µg/mL / pest or weed control at 100 µg/mL: Zea mays, 168 h, protectant activity; for pest or weed control at 400 µg/mL: read-out: control effect against corn rust (%), 400 mg/L; for pest or weed control at 0.4 µg/mL: read-out: control effect against corn rust (%), 0.4 mg/L; for pest or weed control at 1.6 µg/mL: read-out: control effect against corn rust (%), 1.6 mg/L; for pest or weed control at 6.25 µg/mL: read-out: control effect against corn rust (%), 6.25 mg/L; for pest or weed control at 25 µg/mL: read-out: control effect against corn rust (%), 25 mg/L; for pest or weed control at 100 µg/mL: read-out: control effect against corn rust (%), 100 mg/L
wheat powdery mildew = experiment: protectant activity in vivo against wheat powdery mildew
[2] = Myzus persicae, foliar, 48 h, 10 mg/L, contrastive test, read-out: Insecticidal activity against peach aphid (%)
[3] = Myzus persicae, foliar, 48 h, 100 mg/L, contrastive test, read-out: Insecticidal activity against peach aphid (%)
[4] = Myzus persicae, foliar, 48 h, 600 mg/L, contrastive test, read-out: Insecticidal activity against peach aphid (%)
[5] = 72 h, read-out: Insecticidal activity against armyworm (%)
[6] = Myzus persicae, foliar, 48 h, 5 mg/L, contrastive test, read-out: Insecticidal activity against peach aphid (%)

With `CCc1ncnc(NCc2ccc(Oc3ncc(C(F)(F)F)cc3Cl)cc2)c1Cl` [CK38, reference compound] as the compound, how does the pest or weed control at 10 µg/mL (carmine spider mite; 10 mg/L, contrastive test) read?
Its pest or weed control at 10 µg/mL is 14%.

What about the pest or weed control at 100 µg/mL (carmine spider mite; 100 mg/L, contrastive test) of the same compound?
The pest or weed control at 100 µg/mL was 37%.

What about the pest or weed control at 600 µg/mL (carmine spider mite; 600 mg/L, contrastive test) of the same compound?
Its pest or weed control at 600 µg/mL is 99%.

And the inhibition at 25 ppm (rice blast)?
Its inhibition at 25 ppm is 0%.

And the pest or weed control at 10 µg/mL [1, 2]?
The pest or weed control at 10 µg/mL was 0%.

And the pest or weed control at 100 µg/mL [1, 3]?
The pest or weed control at 100 µg/mL was 24%.

What about the pest or weed control at 600 µg/mL [1, 4] of the same compound?
Its pest or weed control at 600 µg/mL is 100%.

What about the pest or weed control at 10 µg/mL (Diamond back moth) of the same compound?
Its pest or weed control at 10 µg/mL is 5%.

And the pest or weed control at 100 µg/mL (Diamond back moth)?
Its pest or weed control at 100 µg/mL is 21%.

And the pest or weed control at 600 µg/mL (Diamond back moth)?
The pest or weed control at 600 µg/mL was 100%.

And the pest or weed control at 600 µg/mL (armyworm; [5])?
Its pest or weed control at 600 µg/mL is 0%.

And the pest or weed control at 400 µg/mL (corn rust)?
The pest or weed control at 400 µg/mL was 0%.

What does the source list for `CCc1ncnc(NC(C)c2ccc(Oc3ncc(C(F)(F)F)cc3Cl)cc2)c1Cl` (stereo not shown) [CK39, reference compound]?
pest or weed control at 10 µg/mL (carmine spider mite; 10 mg/L, contrastive test): 16%; pest or weed control at 100 µg/mL (carmine spider mite; 100 mg/L, contrastive test): 37%; pest or weed control at 600 µg/mL (carmine spider mite; 600 mg/L, contrastive test): 100%; inhibition at 25 ppm (rice blast): 0%; pest or weed control at 5 µg/mL [1, 6]: 0%; pest or weed control at 10 µg/mL [1, 2]: 2%; pest or weed control at 100 µg/mL [1, 3]: 86%; pest or weed control at 600 µg/mL [1, 4]: 100%; pest or weed control at 10 µg/mL (Diamond back moth): 0%; pest or weed control at 100 µg/mL (Diamond back moth): 20%; pest or weed control at 600 µg/mL (Diamond back moth): 80%; pest or weed control at 600 µg/mL (armyworm; [5]): 0%; pest or weed control at 0.4 µg/mL (corn rust): 0%; pest or weed control at 1.6 µg/mL (corn rust): 10%; pest or weed control at 6.25 µg/mL (corn rust): 50%; pest or weed control at 25 µg/mL (corn rust): 80%; pest or weed control at 100 µg/mL (corn rust): 100%; pest or weed control at 400 µg/mL (corn rust): 100%

Which pest or weed control at 10 µg/mL (carmine spider mite; 10 mg/L, contrastive test) does the source give for `CCC(Nc1ncnc(C)c1Cl)c1ccc(Oc2ccc(C(F)(F)F)cn2)cc1` (stereo not shown) [CK41, reference compound] here?
The pest or weed control at 10 µg/mL was 0%.

What about the pest or weed control at 100 µg/mL (carmine spider mite; 100 mg/L, contrastive test) of the same compound?
The pest or weed control at 100 µg/mL was 99%.

What about the pest or weed control at 600 µg/mL (carmine spider mite; 600 mg/L, contrastive test) of the same compound?
Its pest or weed control at 600 µg/mL is 100%.

What about the inhibition at 25 ppm (rice blast) of the same compound?
Its inhibition at 25 ppm is under 50%.

What about the pest or weed control at 2.5 µg/mL ([1]; Myzus persicae, foliar, 48 h, 2.5 mg/L, contrastive test, read-out: Insecticidal activity against peach aphid (%)) of the same compound?
The pest or weed control at 2.5 µg/mL was 0%.

And the pest or weed control at 5 µg/mL [1, 6]?
Its pest or weed control at 5 µg/mL is 15%.

And the pest or weed control at 10 µg/mL [1, 2]?
Its pest or weed control at 10 µg/mL is 23%.

And the pest or weed control at 100 µg/mL [1, 3]?
Its pest or weed control at 100 µg/mL is 97%.

And the pest or weed control at 600 µg/mL [1, 4]?
The pest or weed control at 600 µg/mL was 100%.

What about the pest or weed control at 6.25 µg/mL (wheat powdery mildew; Triticum aestivum, 168 h, read-out: control effect against wheat powdery mildew (%), 6.25 mg/L, protectant activity) of the same compound?
The pest or weed control at 6.25 µg/mL was 0%.

What about the pest or weed control at 25 µg/mL (wheat powdery mildew; Triticum aestivum, 168 h, read-out: control effect against wheat powdery mildew (%), 25 mg/L, protectant activity) of the same compound?
Its pest or weed control at 25 µg/mL is 50%.

And the pest or weed control at 100 µg/mL (wheat powdery mildew; Triticum aestivum, 168 h, read-out: control effect against wheat powdery mildew (%), 100 mg/L, protectant activity)?
The pest or weed control at 100 µg/mL was 70%.

What about the pest or weed control at 400 µg/mL (wheat powdery mildew; Triticum aestivum, 168 h, read-out: control effect against wheat powdery mildew (%), 400 mg/L, protectant activity) of the same compound?
Its pest or weed control at 400 µg/mL is 100%.

What about the pest or weed control at 10 µg/mL (Diamond back moth) of the same compound?
The pest or weed control at 10 µg/mL was 0%.

What about the pest or weed control at 100 µg/mL (Diamond back moth) of the same compound?
Its pest or weed control at 100 µg/mL is 53%.

And the pest or weed control at 600 µg/mL (Diamond back moth)?
The pest or weed control at 600 µg/mL was 86%.

And the pest or weed control at 10 µg/mL (armyworm; 72 h, 10 mg/L, read-out: Insecticidal activity against armyworm (%))?
The pest or weed control at 10 µg/mL was 0%.

What about the pest or weed control at 100 µg/mL (armyworm; 72 h, 100 mg/L, read-out: Insecticidal activity against armyworm (%)) of the same compound?
The pest or weed control at 100 µg/mL was 0%.

And the pest or weed control at 600 µg/mL (armyworm; [5])?
The pest or weed control at 600 µg/mL was 100%.

And the pest or weed control at 0.4 µg/mL (corn rust)?
The pest or weed control at 0.4 µg/mL was 0%.

What about the pest or weed control at 1.6 µg/mL (corn rust) of the same compound?
The pest or weed control at 1.6 µg/mL was 20%.

And the pest or weed control at 6.25 µg/mL (corn rust)?
The pest or weed control at 6.25 µg/mL was 80%.

What about the pest or weed control at 25 µg/mL (corn rust) of the same compound?
The pest or weed control at 25 µg/mL was 90%.

And the pest or weed control at 100 µg/mL (corn rust)?
The pest or weed control at 100 µg/mL was 100%.

And the pest or weed control at 400 µg/mL (corn rust)?
The pest or weed control at 400 µg/mL was 100%.

`CCc1ncnc(NCCc2ccc(Oc3ccc(C(F)(F)F)cn3)cc2)c1Cl` [Compound I-6758] was tested. Which “Insecticidal activity against carmine spider mite (% )” value (“Insecticidal activity … (% )” for short) (carmine spider mite; 2.5 mg/L) did it give?
The value was 79%.

What about the “Insecticidal activity … (% )” value (carmine spider mite; 5 mg/L) of the same compound?
The value was 82%.

And the “Insecticidal activity … (% )” value (carmine spider mite; 10 mg/L, contrastive test)?
The value was 99%.

And the “Insecticidal activity … (% )” value (carmine spider mite; 100 mg/L, contrastive test)?
Its value is 100%.

And the “Insecticidal activity … (% )” value (carmine spider mite; 600 mg/L, contrastive test)?
Its value is 100%.

And the “control against carmine spider mite” value (carmine spider mite; 100 ppm)?
Its value is 100%.

What about the “control against carmine spider mite” value (carmine spider mite; 600 ppm) of the same compound?
The value was 100%.

What about the inhibition at 8.3 ppm (rice blast; read-out: inhibition rate against rice blast, 8.3 ppm, in vitro) of the same compound?
Its inhibition at 8.3 ppm is 80 to 99%.

And the “Insecticidal activity against peach aphid (%)” value (shortened to “Insecticidal activity … (%)”) ([1]; 1.25 mg/L, contrastive test)?
The value was 89%.

And the “Insecticidal activity … (%)” value ([1]; 2.5 mg/L, contrastive test)?
Its value is 100%.

And the “Insecticidal activity … (%)” value ([1]; 5 mg/L, contrastive test)?
The value was 100%.

And the “Insecticidal activity … (%)” value ([1]; 10 mg/L, contrastive test)?
The value was 100%.

And the “Insecticidal activity … (%)” value ([1]; 100 mg/L, contrastive test)?
Its value is 100%.

And the “Insecticidal activity … (%)” value ([1]; 600 mg/L, contrastive test)?
Its value is 100%.

And the “control (test results against green peach aphid)” value ([1]; 2.5 ppm)?
Its value is 100%.

What about the “control (test results against green peach aphid)” value ([1]; 5 ppm) of the same compound?
Its value is 100%.

What about the “control (test results against green peach aphid)” value ([1]; 10 ppm) of the same compound?
The value was 100%.

What about the “control (test results against green peach aphid)” value ([1]; 100 ppm) of the same compound?
Its value is 100%.

What about the “control (test results against green peach aphid)” value ([1]; 600 ppm) of the same compound?
The value was 100%.

What about the “protectant activity against wheat powdery mildew in vivo” value (wheat powdery mildew; 100 ppm) of the same compound?
The value was 100%.

And the “protectant activity against wheat powdery mildew in vivo” value (wheat powdery mildew; 400 ppm)?
The value was 100%.

And the “control (test results against diamond back moth)” value (Diamond back moth; 100 ppm)?
The value was 100%.

What about the “control (test results against diamond back moth)” value (Diamond back moth; 600 ppm) of the same compound?
The value was 100%.

What about the “control (test results against armyworm)” value (armyworm; 100 ppm) of the same compound?
Its value is 100%.

What about the “control (test results against armyworm)” value (armyworm; 600 ppm) of the same compound?
The value was 100%.

And the “protectant activity against corn rust in vivo” value (corn rust; 100 ppm)?
Its value is 100%.

What about the “protectant activity against corn rust in vivo” value (corn rust; 400 ppm) of the same compound?
Its value is 100%.
